Holding throughout (type): physicochemical
Data set [1] in a line: Octanol/water partition coefficient (log P). From the text:
The octanol/water partition coefficient (log P) of the compounds tested according to this invention can e.g. be determined by accepted standard methods, such as OECD guideline (July 1995), “Test No. 107: Partition Coefficient (n-octanol/water): Shake Flask Method”, OECD Guidelines for the Testing of Chemicals, Section 1: Physical-Chemical properties, OECD Publishing. The log P value may also be determined according to the Draft OECD guideline OECD (2000), see OECD Draft guideline for the Testing of Chemicals: 122 Partition Coefficient (n-Octanol/Water): pH-Metric Method for Ionisable Substances.
Compound (A) can be formulated together with various oily components (C) as aqueous based, liquid compositions with higher concentration of the drug substance. These formulations can be easily applied to different animal species and human beings via application routes like the parenteral route. The compound (A) is a lipophilic compound with limited wettability and solubility in aqueous media. The lipophilicity can be expressed by the log P value, which is approximately 3 for compound (A).

Data set [2] is described as follows: Stability of emulsions with soybean oil/MCT oily component (Example 3). To be noted: oily component comprising soybean oil and MCT. On the procedure:
The oily phase containing the compound (A) was then mixed with an emulsifier (1%-3% by weight) of e.g. Lipoid S 75 Lipoid GmbH Germany, and afterwards with the aqueous phase containing a small amount (2.5% by weight) of a tonicity adjusting agent (Glycerol).
Different compositions were prepared containing about 10% to 20% of the oily component (C) and about 70 to 90% of water. These compositions were mixed by using an Ultra-Turrax-homogenizer followed by one to 10 cycles of high pressure homogenisation. These emulsions prepared are then characterized by microscopic analysis and by dynamic light-scattering methods (Horiba LB 500). Furthermore, laser diffraction experiments were made with the emulsions ([…]) and electro-acoustic experiments were performed (Dispersion Technology DT 300; Malvern Zetasizer Nano ZS).
By using the above-mentioned oily component (comprising soybean oil and MCT), it was possible to prepare stable emulsions of compound (A) containing up to 2 mg of compound (A) per ml of the emulsion. The stability of the emulsions prepared with compound (A) can be described by the Zeta-function which describes the degree of repulsion of particles having similar charges. The Zeta-potential of the emulsions were tested by acoustic and optical methods described in the literature.

Data set [3] is described as follows: Maximal solubility in oily components (mixing, PTFE filtration, HPLC analysis). To be noted: oil or lipid, thermodynamic from solid. As for the experimental part: As pyrazolopyrimidine component, (6-Bromo-pyrazolo[1,5-a]-pyrimidine-2-yl)-(1(R)-methyl-3,4-dihydro-1H-isoquinoline-2-yl)-methanone was formulated with various oily components with higher concentrations of the drug substance using specific amounts of oily components (C). The following compositions were prepared by mixing the respective oily component (C) and the pyrazolopyrimidine compound, followed by filtration (PTFE-filter) and then analysis by High Performance Liquid Chromatography.
A liquid mixture was prepared by using 100 g of soybean oil and 100 g of MCT. The soybean oil is commercially available by Caelo (Caesar & Lorenz GmbH, Hilden, Germany). The component MCT is also commercially available (e.g. by Caelo). The solubility of compound (A) in this 50:50 (w/w) mixture of two oily components (C1) and (C2) was tested. Three different compositions were prepared (containing 1 mg/ml, 1.5 mg/ml and 2.0 mg/ml) of compound (A).

A short description of data set [4]: Solubility of compound (A) in aqueous media. To be noted: room temperature. As for the experimental part: (6-Bromo-pyrazolo[1,5-a]pyrimidine-2-yl)-(1(R)-methyl-3,4-dihydro-1H-isoquinoline-2-yl)-methanone, and which is of particular interest and has the formula (A) as described above. This compound (A) is the R-enantiomer, but both isomers (R and S) were prepared by classical chemical synthesis. The compound (A) was tested in various compositions (formulations) inter alia for CNS-applications. The compound (A) is a small molecule having a molecular weight of about 360 g/Mol, but is very little soluble in aqueous media at room temperature (about 0.001 to 0.01 mg/ml).

The term logP denotes a log measure of how a compound divides between an organic and an aqueous phase. As a reminder, the solubility is the dissolved amount per volume that the medium holds.

≈ marks a conversion by molar mass, not a printed value.

In data set [1], `C[C@@H]1c2ccccc2CCN1C(=O)c1cc2ncc(Br)cn2n1` [Compound (A), (6-Bromo-pyrazolo[1,5-a]pyrimidine-2-yl)-(1(R)-methyl-3,4-dihydro-1H-isoquinoline-2-yl)-methanone] had a logP of about 3. Further, in data set [2], the “content of compound (A) in stable emulsions” value is “up to 2 mg per ml”. In addition, the solubility in data set [3] (50:50 (w/w) mixture of soybean oil and MCT, read-out: maximum solubility in mixture of oily components) is 8000 µg/mL (≈ 21.5 mM); in data set [3] (25° C., MCT, read-out: maximal solubility in MCT) it was 12000 µg/mL (≈ 32.3 mM); in data set [3] (25° C., castor oil, read-out: maximal solubility in castor oil), 47000 µg/mL (≈ 127 mM); in data set [3] (25° C., olive oil, read-out: maximal solubility in olive oil), 6000 µg/mL (≈ 16.2 mM); in data set [3] (25° C., soybean oil, read-out: maximal solubility in soybean oil), 7000 µg/mL (≈ 18.9 mM); in data set [4], 1 to 10 µg/mL (≈ 0.00269 to 0.0269 mM).

(Values after patent US20150165756A1, “STENCILS” (DTG International GmbH, priority 2011, published 2015).)
